Values quoted from earlier work in patent US4291169A, “Substituted naphthoic acids” (American Cyanamid Company, priority 1980, dated 1981).
One block for each compound: values may come before it.

Assays:
[1] = test system: corneal ulceration; details: human
[2] = test system: collagenase; details: Woolley et al. (1978); Seifter and Harper (1971)
[3] = test system: alkali burned rabbit; details: directly applied to corneal ulcerations
[4] = compared with cysteine
[5] = test system: collagenase; details: Thromb. Res., 10(4), 605-11 (1977)

Compound: N[C@@H](CS)C(=O)O [cysteine]
effect in treatment of acute and chronic corneal ulceration (in words) [1]: effective in the treatment of acute and chronic corneal ulceration | inhibition of connective tissue destruction / collagenase (in words) [2]: collagenase inhibitors

Compound: c1cnc2c(c1)ccc1cccnc12 [1,10-phenanthroline]
inhibition of connective tissue destruction / collagenase (in words) [2]: collagenase inhibitors

Compound: α2 -macroglobulin: Naturally occurring collagnase inhibitors include the serum components, α2 -macroglobulin and β1-anticollagenase
inhibition of connective tissue destruction / collagenase (in words) [2]: Naturally occurring collagnase inhibitors

Compound: O=C([O-])CN(CCN(CC(=O)[O-])CC(=O)[O-])CC(=O)[O-].[Ca+2].[Ca+2] [Calcium ethylenediaminetetraacetate]
frequency of ulceration (in words) [3]: reduce the frequency of ulceration

stability (in words) [4]: greater stability
Compound: CC(=O)N[C@@H](CS)C(=O)O [acetylcysteine]
effect in treatment of acute and chronic corneal ulceration (in words) [1]: effective in the treatment of acute and chronic corneal ulceration | frequency of ulceration (in words) [3]: reduce the frequency of ulceration

Compound: sodium auriothiomalate
inhibition of connective tissue destruction / collagenase (in words) [2]: collagenase inhibitors

Compound: Cc1cc(-c2ccc(/N=N/c3c(S(=O)(=O)O)cc4cc(S(=O)(=O)O)cc(N)c4c3O)c(C)c2)ccc1/N=N/c1c(S(=O)(=O)O)cc2cc(S(=O)(=O)O)cc(N)c2c1O [trypan blue]
inhibition of the activity of collagenase (in words) [5]: inhibiting the activity of collagenase, or a proteinase contaminant in the collagenase preparation

Compound: O[C@H](CS)[C@H](O)CS (relative stereo) [dithiothretol]
inhibition of connective tissue destruction / collagenase (in words) [2]: collagenase inhibitors

Compound: Cc1ccc(C(=O)Nc2ccc(S(=O)(=O)O)c3cc(S(=O)(=O)O)cc(S(=O)(=O)O)c23)cc1NC(=O)c1cccc(NC(=O)Nc2cccc(C(=O)Nc3cc(C(=O)Nc4ccc(S(=O)(=O)O)c5cc(S(=O)(=O)O)cc(S(=O)(=O)O)c45)ccc3C)c2)c1 [Suramin]
inhibition of the activity of collagenase (in words) [5]: not inhibiting the action of collagenase
